We go through nine cell lines from the supplement of paper PMC10307832.

Compound in the experiment “BMX-IN-1 + Luminespib”: C=CC(=O)Nc1cc(-n2c(=O)ccc3cnc4ccc(-c5ccc(NS(C)(=O)=O)cc5)cc4c32)ccc1C [BMX-IN-1] + CCNC(=O)c1noc(-c2cc(C(C)C)c(O)cc2O)c1-c1ccc(CN2CCOCC2)cc1 [Luminespib] (partner 0.01 µM)
The experiment in a line: relative viability (nuclei count vs DMSO), 5 days (fraction); higher = more cells survive. An outline of the steps:
(§1)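 Values are medians from duplicate plates. Each reflects relative viability, defined as the nuclei count of treated wells over that of vehicle wells. Lung cancer cell lines in 1536-well plates were pin-tool dosed one day after seeding with one drug alone or with a fixed anchor-drug dose plus five library-drug doses (not always all listed) in √10 steps, then fixed, stained and imaged at 4× after 5 days.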

Compound in the experiment “Ibrutinib + Navitoclax”: C=CC(=O)N1CCC[C@@H](n2nc(-c3ccc(Oc4ccccc4)cc3)c3c(N)ncnc32)C1 [Ibrutinib] + CC1(C)CCC(c2ccc(Cl)cc2)=C(CN2CCN(c3ccc(C(=O)NS(=O)(=O)c4ccc(N[C@H](CCN5CCOCC5)CSc5ccccc5)c(S(=O)(=O)C(F)(F)F)c4)cc3)CC2)C1 [Navitoclax] (partner 0.5 µM)
The experiment is described as above. An outline of the steps: as §1

As to NCI-H1666, the relative viability with BMX-IN-1 + Luminespib (first compound 0.02 µM) was determined as 1.05; with BMX-IN-1 + Luminespib (first compound 0.2 µM) it was 1.08; with BMX-IN-1 + Luminespib (first compound 0.6325 µM), 1.04; with BMX-IN-1 + Luminespib (first compound 2 µM), 1; with Ibrutinib + Navitoclax (first compound 0.005 µM) it was 0.762; in the experiment with Ibrutinib + Navitoclax (first compound 0.01581 µM), 0.806. Also, the figures for the relative viability with Ibrutinib + Navitoclax (first compound 0.05 µM), with Ibrutinib + Navitoclax (first compound 0.1581 µM) and with Ibrutinib + Navitoclax (first compound 0.5 µM) were 0.521, 1.06 and 0.451, respectively.

Take NCI-H1703: the relative viability with Ibrutinib + Navitoclax (first compound 0.005 µM) stood at 0.896; with Ibrutinib + Navitoclax (first compound 0.01581 µM), 0.96; with Ibrutinib + Navitoclax (first compound 0.05 µM), 1.05; with Ibrutinib + Navitoclax (first compound 0.1581 µM), 1.17; in the experiment with Ibrutinib + Navitoclax (first compound 0.5 µM), 0.731.

On to NCI-H1734, for which the relative viability with BMX-IN-1 + Luminespib (first compound 0.02 µM) was 0.199; with BMX-IN-1 + Luminespib (first compound 0.2 µM), 0.213; in the experiment with BMX-IN-1 + Luminespib (first compound 0.6325 µM), 0.202; with BMX-IN-1 + Luminespib (first compound 2 µM), 0.147; in the experiment with Ibrutinib + Navitoclax (first compound 0.005 µM), 0.839; with Ibrutinib + Navitoclax (first compound 0.01581 µM), 0.821. In addition, the relative viability with Ibrutinib + Navitoclax (first compound 0.05 µM) is 0.794; in the experiment with Ibrutinib + Navitoclax (first compound 0.1581 µM) it was 0.869; in the experiment with Ibrutinib + Navitoclax (first compound 0.5 µM) it was 0.726.

With NCI-H1755, the relative viability with BMX-IN-1 + Luminespib (first compound 0.02 µM) stood at 0.525; with BMX-IN-1 + Luminespib (first compound 0.2 µM), 0.387; with BMX-IN-1 + Luminespib (first compound 0.6325 µM), 0.502; in the experiment with BMX-IN-1 + Luminespib (first compound 2 µM), 0.597; with Ibrutinib + Navitoclax (first compound 0.005 µM) it was 0.988; with Ibrutinib + Navitoclax (first compound 0.01581 µM), 1.02. Moreover, the figures for the relative viability with Ibrutinib + Navitoclax (first compound 0.1581 µM) and in the experiment with Ibrutinib + Navitoclax (first compound 0.5 µM) were 1.09 and 0.952, respectively.

As to NCI-H1792, the relative viability in the experiment with BMX-IN-1 + Luminespib (first compound 0.02 µM) was 0.428; with BMX-IN-1 + Luminespib (first compound 0.2 µM), 0.31; with BMX-IN-1 + Luminespib (first compound 0.6325 µM), 0.427; with BMX-IN-1 + Luminespib (first compound 2 µM) it was 0.46; in the experiment with Ibrutinib + Navitoclax (first compound 0.005 µM), 0.669; with Ibrutinib + Navitoclax (first compound 0.01581 µM), 0.694. For the same cell line, the relative viability amounted to 0.69 with Ibrutinib + Navitoclax (first compound 0.05 µM), 0.474 with Ibrutinib + Navitoclax (first compound 0.1581 µM) and 0.599 with Ibrutinib + Navitoclax (first compound 0.5 µM).

As for NCI-H1793, the relative viability was determined as 0.172 with BMX-IN-1 + Luminespib (first compound 0.02 µM); 0.167 with BMX-IN-1 + Luminespib (first compound 0.2 µM); 0.167 with BMX-IN-1 + Luminespib (first compound 0.6325 µM); 0.204 with BMX-IN-1 + Luminespib (first compound 2 µM); 0.282 with Ibrutinib + Navitoclax (first compound 0.01581 µM); 0.603 with Ibrutinib + Navitoclax (first compound 0.05 µM). Also, the results for the relative viability in the experiment with Ibrutinib + Navitoclax (first compound 0.1581 µM) and with Ibrutinib + Navitoclax (first compound 0.5 µM) were 0.498 and 0.343, respectively.

For the cell line NCI-H1915, the relative viability with BMX-IN-1 + Luminespib (first compound 0.02 µM) came out at 0.912; in the experiment with BMX-IN-1 + Luminespib (first compound 0.2 µM) it was 1.14; in the experiment with BMX-IN-1 + Luminespib (first compound 0.6325 µM), 0.785; with BMX-IN-1 + Luminespib (first compound 2 µM), 0.751; in the experiment with Ibrutinib + Navitoclax (first compound 0.01581 µM) it was 0.767; with Ibrutinib + Navitoclax (first compound 0.05 µM), 0.799. In addition, the relative viability with Ibrutinib + Navitoclax (first compound 0.1581 µM) was found to be 0.793; with Ibrutinib + Navitoclax (first compound 0.5 µM), 0.795.

As to NCI-H1944, the relative viability with BMX-IN-1 + Luminespib (first compound 0.02 µM) was 0.812; with BMX-IN-1 + Luminespib (first compound 0.2 µM) it was 0.729; with BMX-IN-1 + Luminespib (first compound 0.6325 µM), 0.728; in the experiment with BMX-IN-1 + Luminespib (first compound 2 µM), 0.706; with Ibrutinib + Navitoclax (first compound 0.005 µM), 0.902; with Ibrutinib + Navitoclax (first compound 0.01581 µM), 0.985. Moreover, the figures for the relative viability with Ibrutinib + Navitoclax (first compound 0.05 µM), with Ibrutinib + Navitoclax (first compound 0.1581 µM) and with Ibrutinib + Navitoclax (first compound 0.5 µM) were 0.811, 0.969 and 0.689, respectively.

On to NCI-H1975, for which the relative viability in the experiment with BMX-IN-1 + Luminespib (first compound 0.02 µM) amounted to 0.253; with BMX-IN-1 + Luminespib (first compound 0.2 µM), 0.21; with BMX-IN-1 + Luminespib (first compound 0.6325 µM) it was 0.481; with BMX-IN-1 + Luminespib (first compound 2 µM) it was 0.159; in the experiment with Ibrutinib + Navitoclax (first compound 0.005 µM), 1.04; with Ibrutinib + Navitoclax (first compound 0.01581 µM), 1.14. In addition, the values for the relative viability with Ibrutinib + Navitoclax (first compound 0.05 µM), in the experiment with Ibrutinib + Navitoclax (first compound 0.1581 µM) and with Ibrutinib + Navitoclax (first compound 0.5 µM) were 1.08, 1.09 and 0.637, respectively.
